Results from patent US10456379B2, “Imidazole-based antimicrobial agents” (priority 2014, dated 2019).
Converted amounts (≈) assume the structure as drawn. Like-named read-outs stand apart in the source and are kept apart here.

Tests used:
[1] = system: Streptococcus pneumoniae (Chester, ATCC49619); assay: Broth microdilution MIC assay, Streptococcus pneumoniae; assay type: cell-based; settings: for MIC: Streptococcus pneumoniae, ATCC49619, read-out: Antibacterial activity, SP (Streptococcus pneumoniae), MIC class; for Antibacterial activity Streptococcus pneumoniae: MIC class score, MIC100, broth microdilution
[2] = system: Staphylococcus aureus MRSA (COL); assay: Broth microdilution MIC assay, Staphylococcus aureus MRSA (COL); assay type: cell-based; settings: for Antibacterial activity Staphylococcus aureus (MRSA): MIC class score, MIC100, broth microdilution, COL strain
[3] = system: Staphylococcus epidermidis (PCI 1200, ATCC12228); assay: Broth microdilution MIC assay, Staphylococcus epidermidis; assay type: cell-based; settings: read-out: Antibacterial activity, SE (Staphylococcus epidermidis), MIC class
[4] = system: Enterococcus faecalis (ATCC29212); assay: Broth microdilution MIC assay, Enterococcus faecalis; assay type: cell-based; settings: read-out: Antibacterial activity, EFs (Enterococcus faecalis), MIC class
[5] = system: Enterococcus faecium (AGR15, ATCCBAA-2127); assay: Broth microdilution MIC assay, Enterococcus faecium; assay type: cell-based; settings: ATCCBAA2127, read-out: Antibacterial activity, EFm (Enterococcus faecium), MIC class
[6] = system: vancomycin-resistant Enterococcus faecium (ATCC51559); assay: microbe, parasite or virus in culture; assay type: cell-based; settings: ATCC51559; vancomycin-resistant Enterococcus faecium; read-out: Antibacterial activity, VREFm (vancomycin-resistant EFm), MIC class
[7] = system: vancomycin-resistant Enterococcus faecalis (ATCC51575); assay: microbe, parasite or virus in culture; assay type: cell-based; settings: ATCC51575; vancomycin-resistant Enterococcus faecalis; read-out: Antibacterial activity, VREFs (vancomycin-resistant EFs), MIC class
[8] = system: Staphylococcus aureus MSSA (Newman); assay: Broth microdilution MIC assay, Staphylococcus aureus MSSA (Newman); assay type: cell-based; settings: for Antibacterial activity Staphylococcus aureus (MSSA): MIC class score, MIC100, broth microdilution, Newman strain; for MIC: Staphylococcus aureus
[9] = system: Mycobacterium smegmatis (mc(2)155); assay: Broth microdilution MIC assay, Mycobacterium smegmatis
[10] = system: daptomycin-resistant Staphylococcus aureus (from MRSA COL); assay: Broth microdilution MIC assay, daptomycin-resistant MRSA; assay type: cell-based; settings: 24 h, read-out: Antibacterial activity, MRSA strains with additional resistance, D (daptomycin), MIC class
[11] = system: platensimycin-resistant Staphylococcus aureus (from MRSA COL); assay: Broth microdilution MIC assay, platensimycin-resistant MRSA; assay type: cell-based; settings: 24 h, read-out: Antibacterial activity, MRSA strains with additional resistance, P (platensimycin), MIC class
[12] = system: MRSA (COL) resistant to triclosan; assay: Broth microdilution MIC assay, triclosan-resistant MRSA; settings: Staphylococcus aureus, read-out: Antibacterial activity, MRSA strains with additional resistance, T (triclosan), MIC class
[13] = read-out: Antibacterial activity, MSSA (Staphylococcus aureus MSSA), MIC class
[14] = read-out: Antibacterial activity Staphylococcus aureus (MSSA)

Cc1nc(-c2ccc(-c3ccc(Cl)c(OC(F)(F)F)c3)o2)[nH]c1-c1ccc(Cl)cc1 [compound 44]
MIC [1]: < 1 µg/mL | Antibacterial activity Staphylococcus aureus (MRSA) [2]: 2 (MIC100 of 11-20 μg/ml) | MIC [3]: 11 to 20 µg/mL (≈ 24.3 to 44.1 µM) | MIC [4]: 20 to 50 µg/mL (≈ 44.1 to 110 µM) | MIC [5]: 20 to 50 µg/mL (≈ 44.1 to 110 µM) | MIC [6]: 11 to 20 µg/mL (≈ 24.3 to 44.1 µM) | MIC [7]: 11 to 20 µg/mL (≈ 24.3 to 44.1 µM)

Cc1[nH]c(-c2ccc(-c3ccc(C(F)(F)F)cc3)s2)nc1-c1ccccc1 [compound 46]
Antibacterial activity Streptococcus pneumoniae [1]: 3 (MIC100 of 2-5 μg/ml) | Antibacterial activity Staphylococcus aureus (MSSA) [8]: 2 (MIC100 of 11-20 μg/ml) | MIC [8, 13]: 11 to 20 µg/mL (≈ 28.6 to 52 µM)

Cc1[nH]c(-c2ccc(-c3ccc(C(F)(F)F)cc3)o2)nc1-c1ccc(Cl)cc1 [compound 47]
Antibacterial activity Staphylococcus aureus (MRSA) [2]: 3 (MIC100 of 3-10 μg/ml) | MIC [4]: 20 to 50 µg/mL (≈ 49.7 to 124 µM) | MIC [5]: 20 to 50 µg/mL (≈ 49.7 to 124 µM) | MIC [6]: 20 to 50 µg/mL (≈ 49.7 to 124 µM) | MIC [7]: 20 to 50 µg/mL (≈ 49.7 to 124 µM) | Antibacterial activity, MS (Mycobacterium smegmatis), MIC class [9]: 3 (MIC100 of 3-10 μg/ml)

Cc1[nH]c(-c2ccc(-c3ccc(OC(F)(F)F)cc3)o2)nc1-c1ccc(Cl)cc1 [compound 48]
MIC [3]: 11 to 20 µg/mL (≈ 26.3 to 47.8 µM) | MIC [4]: 20 to 50 µg/mL (≈ 47.8 to 119 µM) | MIC [6]: 20 to 50 µg/mL (≈ 47.8 to 119 µM) | MIC [7]: 20 to 50 µg/mL (≈ 47.8 to 119 µM)

Cc1[nH]c(-c2ccc(-c3ccc(OC(F)(F)F)c(Cl)c3)o2)nc1-c1ccc(Cl)cc1 [compound 50]
Antibacterial activity Streptococcus pneumoniae [1]: 3 (MIC100 of 2-5 μg/ml) | MIC [1]: 2 to 5 µg/mL (≈ 4.41 to 11 µM) | MIC ([2]; Staphylococcus aureus, MRSA, read-out: Antibacterial activity, MRSA (Staphylococcus aureus MRSA), MIC class): 11 to 20 µg/mL (≈ 24.3 to 44.1 µM)

Cc1[nH]c(-c2ccc(-c3ccc(OC(F)(F)F)cc3Cl)o2)nc1-c1ccc(F)cc1 [compound 51]
Antibacterial activity Staphylococcus aureus (MSSA) [8]: 2 (MIC100 of 11-20 μg/ml) | MIC [8, 13]: 11 to 20 µg/mL (≈ 25.2 to 45.8 µM) | MIC [10]: 1 to 3 µg/mL (≈ 2.29 to 6.87 µM) | MIC [11]: 11 to 20 µg/mL (≈ 25.2 to 45.8 µM) | MIC [12]: 3 to 10 µg/mL (≈ 6.87 to 22.9 µM)

FC(F)(F)c1ccccc1-c1ccc(-c2nc(Cl)c(-c3ccccc3)[nH]2)o1 [compound 65]
MIC [1]: < 1 µg/mL | Antibacterial activity Staphylococcus aureus (MSSA) [8]: 2 (MIC100 of 11-20 μg/ml) | MIC [8, 13]: 11 to 20 µg/mL (≈ 28.3 to 51.4 µM)

FC(F)(F)Oc1ccccc1-c1ccc(-c2nc(-c3ccccc3Cl)c[nH]2)o1 [compound 67]
MIC [1]: 2 to 5 µg/mL (≈ 4.94 to 12.4 µM) | MIC [3]: 11 to 20 µg/mL (≈ 27.2 to 49.4 µM)

FC(F)(F)Oc1ccccc1-c1ccc(-c2nc(-c3ccc(Cl)cc3Cl)c[nH]2)o1 [compound 68]
MIC [1]: 6 to 10 µg/mL (≈ 13.7 to 22.8 µM) | Antibacterial activity Staphylococcus aureus (MSSA) [8]: 2 (MIC100 of 11-20 μg/ml) | MIC [8, 13]: 11 to 20 µg/mL (≈ 25 to 45.5 µM) | MIC [10]: 1 to 3 µg/mL (≈ 2.28 to 6.83 µM) | MIC [11]: 20 to 50 µg/mL (≈ 45.5 to 114 µM)

Cc1ccccc1-c1cnc(-c2ccc(-c3ccccc3C(F)(F)F)o2)[nH]1 [compound 69]
MIC [1]: < 1 µg/mL | MIC [8, 13]: 11 to 20 µg/mL (≈ 29.9 to 54.3 µM) | Antibacterial activity Staphylococcus aureus (MRSA) [2]: 2 (MIC100 of 11-20 μg/ml) | MIC [6]: 20 to 50 µg/mL (≈ 54.3 to 136 µM) | Antibacterial activity, MS (Mycobacterium smegmatis), MIC class [9]: 2 (MIC100 of 11-20 μg/ml)

FC(F)(F)c1ccccc1-c1ccc(-c2ncc(-c3ccccc3)[nH]2)o1 [compound 75]
Antibacterial activity Streptococcus pneumoniae [1]: 3 (MIC100 of 2-5 μg/ml) | MIC [8, 14]: 11 to 20 µg/mL (≈ 31 to 56.4 µM)

Cc1nc(-c2ccc(-c3ccccc3F)o2)[nH]c1-c1ccc(O)cc1 [compound 77]
Antibacterial activity Streptococcus pneumoniae [1]: 3 (MIC100 of 2-5 μg/ml) | Antibacterial activity Staphylococcus aureus (MSSA) [8]: 3 (MIC100 of 3-10 μg/ml)

Cc1nc(-c2ccc(-c3ccc(O)cc3F)o2)[nH]c1-c1ccc(O)cc1 [compound 120]
Antibacterial activity Staphylococcus aureus (MSSA) [8]: 2 (MIC100 of 11-20 μg/ml)

Fc1ccc(-c2ccc(-c3nc4ccccc4[nH]3)o2)cc1 [compound 121]
Antibacterial activity Streptococcus pneumoniae [1]: in- active | Antibacterial activity Staphylococcus aureus (MRSA) [2]: in- active

Fc1ccc(-c2ccc(-c3nc4ccccc4[nH]3)o2)c(F)c1 [compound 122]
Antibacterial activity Streptococcus pneumoniae [1]: in- active | Antibacterial activity Staphylococcus aureus (MRSA) [2]: in- active

Cc1nc(-c2ccc(-c3cccc(O)c3)o2)[nH]c1-c1ccccc1 [compound 145]
Antibacterial activity Streptococcus pneumoniae [1]: 2 (MIC100 of 6-10 μg/ml) | MIC [8, 14]: 11 to 20 µg/mL (≈ 34.8 to 63.2 µM)

Cc1nc(-c2ccc(-c3ccccc3O)o2)[nH]c1-c1ccccc1 [compound 149]
MIC [8, 14]: 11 to 20 µg/mL (≈ 34.8 to 63.2 µM)

Cc1nc(-c2ccc(-c3ccc(O)cc3)o2)[nH]c1-c1ccccc1 [compound 150]
Antibacterial activity Streptococcus pneumoniae [1]: 2 (MIC100 of 6-10 μg/ml) | MIC [8, 14]: 11 to 20 µg/mL (≈ 34.8 to 63.2 µM)

Cc1nc(-c2ccc(-c3ccc4cc(O)ccc4c3)o2)[nH]c1-c1ccccc1 [compound 154]
Antibacterial activity Streptococcus pneumoniae [1]: 2 (MIC100 of 6-10 μg/ml) | MIC [8, 14]: 11 to 20 µg/mL (≈ 30 to 54.6 µM)
